# Laboratory results published in PMC11378297, “Discovery and Profiling of New Multimodal Phenylglycinamide Derivatives as Potent Antiseizure and Antinociceptive Drug Candidates” (ACS Chemical Neuroscience, 2024).
# Read-outs that look alike come from different tables or passages of the source.
# Legend:
# [1] = test system: formalin-induced pain, mice; assay: formalin test; assay type: in vivo, mouse; settings: for nociceptive response, acute phase of the formalin test: 0–5 min after formalin
# [2] = test system: capsaicin-induced pain, mice; assay: capsaicin-induced pain test; assay type: in vivo; settings: Mus musculus, ip, 30 min before capsaicin
# [3] = test system: STZ-induced tactile allodynia, mice; assay: streptozotocin (STZ)-induced peripheral neuropathy, von Frey test; assay type: in vivo, mouse; settings: 21 days after STZ
# From the text: To test whether the compounds are active in the neuropathic pain resulting from another mechanism of neuronal injury, we tested them in streptozotocin (STZ)-induced neuropathy. STZ is the commonly used experimental model to induce diabetic neuropathy. Streptozotocin is toxic to insulin-producing beta cells in the pancreas and selectively damages these cells, leading to insulin deficiency, which subsequently results in chronic hyperglycemia. Hyperglycemia is a major factor in the development of diabetic neuropathy. Elevated blood glucose levels increase its uptake by nerve cells, which results in metabolic and oxidative stress. Moreover, hyperglycemia leads to the formation of advanced glycation end products (AGEs), which are abnormal protein structures. AGEs can accumulate in neuronal tissue and contribute to nerve dysfunction.[63] […] Additionally, STZ-induced neuropathic pain may also involve alterations in the levels of neurotransmitters such as glutamate and GABA.[64],[65]
# Each animal was tested only once. […] Behavioral measurements were observed by trained observers.
# TRPM8 (h) = target: T1, TRPM8 (h) (Homo sapiens, UniProt Q7Z2W7); assay: TRPM8 (h) (antagonist effect); assay type: cell-based; settings: HEK293, human recombinant HEK-293 cell, read-out: % inhibition of control agonist response
# T1 construct: Eurofins
# T1 sequence (Q7Z2W7 whole entry): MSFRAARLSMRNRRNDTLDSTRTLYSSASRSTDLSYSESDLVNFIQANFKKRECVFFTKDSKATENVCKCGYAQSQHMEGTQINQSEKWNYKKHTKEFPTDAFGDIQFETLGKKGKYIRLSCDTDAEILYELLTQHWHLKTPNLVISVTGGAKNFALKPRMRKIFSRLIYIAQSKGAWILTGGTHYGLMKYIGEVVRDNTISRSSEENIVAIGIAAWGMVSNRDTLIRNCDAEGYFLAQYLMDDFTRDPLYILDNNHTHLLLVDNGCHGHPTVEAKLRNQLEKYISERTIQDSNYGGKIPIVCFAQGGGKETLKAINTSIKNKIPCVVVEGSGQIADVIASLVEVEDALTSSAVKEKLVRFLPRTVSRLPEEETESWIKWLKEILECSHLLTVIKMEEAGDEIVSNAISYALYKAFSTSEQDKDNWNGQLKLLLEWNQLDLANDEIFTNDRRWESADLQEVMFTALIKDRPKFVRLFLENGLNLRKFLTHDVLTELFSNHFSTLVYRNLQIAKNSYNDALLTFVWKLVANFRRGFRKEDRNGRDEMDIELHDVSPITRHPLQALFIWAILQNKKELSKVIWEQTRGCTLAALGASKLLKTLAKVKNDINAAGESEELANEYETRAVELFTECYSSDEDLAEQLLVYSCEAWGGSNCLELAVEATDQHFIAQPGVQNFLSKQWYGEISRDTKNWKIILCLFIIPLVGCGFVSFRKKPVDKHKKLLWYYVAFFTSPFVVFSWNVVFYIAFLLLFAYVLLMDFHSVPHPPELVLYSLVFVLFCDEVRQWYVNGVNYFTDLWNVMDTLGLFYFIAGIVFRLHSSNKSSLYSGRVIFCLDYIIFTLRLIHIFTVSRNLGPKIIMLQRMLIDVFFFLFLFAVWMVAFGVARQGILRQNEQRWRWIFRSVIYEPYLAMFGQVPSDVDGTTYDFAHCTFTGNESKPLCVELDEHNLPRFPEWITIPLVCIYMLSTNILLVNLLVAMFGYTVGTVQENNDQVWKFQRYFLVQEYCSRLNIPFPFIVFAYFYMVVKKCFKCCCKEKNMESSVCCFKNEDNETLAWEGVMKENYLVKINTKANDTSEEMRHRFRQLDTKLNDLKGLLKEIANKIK
# Method: (§1) Using previously described testing methodologies, binding/functional tests were conducted on a commercial basis at Eurofins Laboratories (Poitiers, France) and Eurofins Panlabs Discovery Services Taiwan, Ltd. (New Taipei City, Taiwan); see Table S9 for more information.
# (§2) Table S9. Radioligand binding and functional assays. […]
# TRPM8 (h) (antagonist effect) […]
# (§3) Assays were performed commercially in Eurofins Laboratories (Poitiers, France) or Eurofins Panlabs Discovery Services
# (§4) Taiwan, Ltd. (New Taipei City, Taiwan).
# TRPA1 (h) = target: T2, TRPA1 (h) (Homo sapiens, UniProt O75762); assay: TRPA1 (h) cell based antagonist calcium flux assay; settings: HEK293, human recombinant HEK-293 cell, read-out: % inhibition of control agonist response
# T2 construct: Eurofins
# T2 sequence (O75762 whole entry): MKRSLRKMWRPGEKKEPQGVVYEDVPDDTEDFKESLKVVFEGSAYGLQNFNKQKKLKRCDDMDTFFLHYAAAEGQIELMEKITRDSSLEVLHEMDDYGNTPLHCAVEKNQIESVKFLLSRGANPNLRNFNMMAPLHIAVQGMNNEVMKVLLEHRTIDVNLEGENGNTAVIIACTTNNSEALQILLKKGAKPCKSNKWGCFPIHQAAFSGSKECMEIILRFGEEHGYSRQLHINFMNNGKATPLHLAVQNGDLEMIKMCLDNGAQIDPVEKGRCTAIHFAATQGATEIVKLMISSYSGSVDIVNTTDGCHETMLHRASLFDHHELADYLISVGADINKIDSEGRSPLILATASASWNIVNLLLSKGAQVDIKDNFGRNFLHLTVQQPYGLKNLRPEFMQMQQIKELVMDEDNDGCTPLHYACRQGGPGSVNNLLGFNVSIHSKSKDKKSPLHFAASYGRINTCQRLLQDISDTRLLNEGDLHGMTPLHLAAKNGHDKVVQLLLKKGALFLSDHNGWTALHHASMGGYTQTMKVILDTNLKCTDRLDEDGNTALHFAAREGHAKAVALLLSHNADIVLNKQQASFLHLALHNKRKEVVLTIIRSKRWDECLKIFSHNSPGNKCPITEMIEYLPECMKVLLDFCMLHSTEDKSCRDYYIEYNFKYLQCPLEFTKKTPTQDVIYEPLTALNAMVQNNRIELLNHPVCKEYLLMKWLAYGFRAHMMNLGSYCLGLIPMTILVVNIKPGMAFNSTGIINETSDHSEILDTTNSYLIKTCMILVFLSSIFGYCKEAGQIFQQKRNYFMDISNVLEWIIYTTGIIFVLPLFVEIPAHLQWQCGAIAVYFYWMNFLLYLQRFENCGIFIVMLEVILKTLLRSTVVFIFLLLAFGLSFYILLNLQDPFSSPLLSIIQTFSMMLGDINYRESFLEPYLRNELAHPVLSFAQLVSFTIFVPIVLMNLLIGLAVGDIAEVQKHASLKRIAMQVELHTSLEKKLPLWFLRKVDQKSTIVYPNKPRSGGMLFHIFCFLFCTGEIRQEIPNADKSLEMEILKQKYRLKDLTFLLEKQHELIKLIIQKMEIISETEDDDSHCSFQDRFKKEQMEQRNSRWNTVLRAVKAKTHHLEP
# Method: as §1, §2
# TRPA1 (h) transient potential ion channel cell based antagonist calcium flux assay […]
# as §3, §4
# [4] = test system: fast voltage-gated sodium channels in rat prefrontal cortex pyramidal neurons; assay: patch-clamp of fast voltage-gated sodium currents in prefrontal cortex pyramidal neurons; assay type: cell-based; settings: 10 μM, control = 1.0, n = 5
# From the text: Figure 9 Compounds (R)-31 and (R)-32 inhibit fast voltage-gated sodium currents in prefrontal cortex pyramidal neurons. (A) Example sodium current recordings in control (black trace), after application of (R)-31 (blue trace) and after wash-out (red trace). Current traces were evoked by a rectangular voltage-step. (B) Influence of (R)-31 on sodium current is shown on an example neuron. Current traces were evoked once every 10 s. […] (C) Averaged, normalized maximal sodium current amplitudes in control, in the presence of (R)-31 and after wash-out. […] (D) Example sodium current recordings in control (black trace), after application of (R)-32 (blue trace) and after wash-out (red trace). Current traces were evoked by a rectangular voltage-step. (E) Influence of (R)-32 on sodium current is shown on an example neuron. Current traces were evoked once every 10 s. […] (F) Averaged, normalized maximal sodium current amplitudes in control, in the presence of (R)-32 and after wash-out.
# Patch-clamp studies were carried out in prefrontal cortex pyramidal neurons. The methodology of slice preparation, preparation of dispersed cortical neurons, and sodium currents recording technique were the same as in our previous study.[99]
# [5] = target: T3, Voltage-Gated Sodium channel hNav1.7 (Homo sapiens, UniProt Q15858); assay: human sodium ion channel cell based automated patch clamp assay, hNav1.7
# T3 construct: Eurofins Discovery (St. Charles, MO, USA)
# T3 sequence (Q15858 whole entry): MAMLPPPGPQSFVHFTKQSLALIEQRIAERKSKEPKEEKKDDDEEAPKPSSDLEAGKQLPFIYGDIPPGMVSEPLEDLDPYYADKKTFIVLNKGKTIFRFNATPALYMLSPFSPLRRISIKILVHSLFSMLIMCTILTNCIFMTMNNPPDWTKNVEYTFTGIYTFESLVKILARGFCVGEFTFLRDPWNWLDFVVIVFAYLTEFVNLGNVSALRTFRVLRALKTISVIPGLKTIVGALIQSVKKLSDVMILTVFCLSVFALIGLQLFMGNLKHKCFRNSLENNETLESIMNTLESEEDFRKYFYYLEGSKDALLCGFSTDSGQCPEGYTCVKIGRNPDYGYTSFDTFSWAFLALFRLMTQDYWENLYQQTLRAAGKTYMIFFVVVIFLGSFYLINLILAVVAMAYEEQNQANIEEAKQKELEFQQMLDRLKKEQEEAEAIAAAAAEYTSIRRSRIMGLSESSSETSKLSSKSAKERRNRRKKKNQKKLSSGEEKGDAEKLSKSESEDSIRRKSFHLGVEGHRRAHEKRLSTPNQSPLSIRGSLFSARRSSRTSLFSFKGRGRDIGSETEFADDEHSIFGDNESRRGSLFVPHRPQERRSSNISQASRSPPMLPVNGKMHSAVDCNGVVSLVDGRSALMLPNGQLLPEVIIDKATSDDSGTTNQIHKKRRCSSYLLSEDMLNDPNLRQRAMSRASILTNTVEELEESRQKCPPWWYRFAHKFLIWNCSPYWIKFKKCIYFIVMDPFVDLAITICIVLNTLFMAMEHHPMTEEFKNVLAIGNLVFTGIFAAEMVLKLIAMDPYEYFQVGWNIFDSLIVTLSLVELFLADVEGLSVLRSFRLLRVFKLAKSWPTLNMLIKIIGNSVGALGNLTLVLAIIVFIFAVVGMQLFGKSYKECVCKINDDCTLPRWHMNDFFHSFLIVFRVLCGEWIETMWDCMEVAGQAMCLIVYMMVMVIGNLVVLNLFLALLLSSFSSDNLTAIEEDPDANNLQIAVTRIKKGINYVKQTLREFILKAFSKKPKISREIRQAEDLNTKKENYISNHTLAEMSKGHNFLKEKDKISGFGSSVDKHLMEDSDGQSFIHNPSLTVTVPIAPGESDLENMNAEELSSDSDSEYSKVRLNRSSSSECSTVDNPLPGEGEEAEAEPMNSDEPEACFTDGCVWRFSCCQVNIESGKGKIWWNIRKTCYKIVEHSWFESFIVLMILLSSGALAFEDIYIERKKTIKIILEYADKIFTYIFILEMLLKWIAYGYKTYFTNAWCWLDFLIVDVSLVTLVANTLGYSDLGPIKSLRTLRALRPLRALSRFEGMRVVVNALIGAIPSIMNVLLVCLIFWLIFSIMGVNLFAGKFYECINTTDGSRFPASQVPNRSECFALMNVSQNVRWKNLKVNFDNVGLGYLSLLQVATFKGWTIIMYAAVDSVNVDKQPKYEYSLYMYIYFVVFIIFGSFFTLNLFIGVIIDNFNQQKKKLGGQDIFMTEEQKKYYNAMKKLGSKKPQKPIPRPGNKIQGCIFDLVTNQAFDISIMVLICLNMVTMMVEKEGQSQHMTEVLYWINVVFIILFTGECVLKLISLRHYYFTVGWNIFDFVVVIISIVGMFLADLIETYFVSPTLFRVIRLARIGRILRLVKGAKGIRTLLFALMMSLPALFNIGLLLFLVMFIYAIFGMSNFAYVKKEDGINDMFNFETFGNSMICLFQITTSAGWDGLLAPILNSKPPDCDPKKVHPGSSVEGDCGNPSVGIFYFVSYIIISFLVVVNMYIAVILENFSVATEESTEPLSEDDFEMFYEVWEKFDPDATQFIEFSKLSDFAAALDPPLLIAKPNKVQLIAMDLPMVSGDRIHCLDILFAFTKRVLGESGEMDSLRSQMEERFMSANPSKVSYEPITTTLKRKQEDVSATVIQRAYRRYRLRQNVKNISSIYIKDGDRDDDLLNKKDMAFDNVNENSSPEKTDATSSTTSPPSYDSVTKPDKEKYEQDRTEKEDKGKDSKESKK
# From the text: Human sodium ion channels cell based automated patch clamp assay
# Human sodium ion channels cell based automated patch clamp assays: sodium channels exist in, a) a resting or closed state at -120 mV, b) a transient open state that inactivates to c) inactivated state at -10 mV. Sodium current inhibition within 1-2 ms of channel opening at 0 mV is open channel inhibition (pulse 1). In order to completely inactivate the sodium channels and facilitate inactivated state-dependent binding of the drug, the channels were kept at open state ( -10 mV) longer (pulsed for 500 ms) and then stepped back to -120 mV for 10 ms to recover from inactivation into resting or closed
# open) before stepping to -10 mV for 50 ms (pulse 2) to mea sure sodium channels that are available to open. […] Pulse 1 and 2 are used to investigate drug binding to the open state and inactivated state of the Na channels, respectively. Each concentration of compound is applied for 5 minutes.
# Voltage-Gated Sodium channel hNav1.1
# [6] = hNav1.7, Pulse 1 (open state), read-out: % Inhibition Mean
# [7] = hNav1.7, Pulse 1 (open state), read-out: % Inhibition n1
# [8] = hNav1.7, Pulse 1 (open state), read-out: % Inhibition n2
# [9] = hNav1.7, Pulse 2 (inactivated state), read-out: % Inhibition Mean
# [10] = hNav1.7, Pulse 2 (inactivated state), read-out: % Inhibition n1
# [11] = hNav1.7, Pulse 2 (inactivated state), read-out: % Inhibition n2
smiles,measurement,setting,value
"CC(=O)N[C@@H](C(=O)N1CCN(c2cccc(C(F)(F)F)c2)CC1)c1ccccc1 [(R)-31, (R)-N-(2-Oxo-1-phenyl-2-(4-(3-(trifluoromethyl)phenyl)piperazin-1-yl)ethyl)acetamide]","nociceptive response, acute phase of the formalin test",[1]; 100 mg/kg i.p.,significantly attenuated the nociceptive response
same,"nociceptive response, late phase of the formalin test","[1]; 100 mg/kg i.p., 15–30 min after formalin",significantly attenuated the nociceptive response
same,ED50,[2],53.9 mg/kg
same,"pain threshold in STZ-induced neuropathy, % of the baseline",[3]; 25 mg/kg i.p.,did not observe any significant effects
same,"pain threshold in STZ-induced neuropathy, % of the baseline",[3]; 50 mg/kg i.p.,123%
same,"pain threshold in STZ-induced neuropathy, % of the baseline",[3]; 100 mg/kg i.p.,178%
same,inhibition at 10 µM,TRPM8 (h),4.6%
same,inhibition at 10 µM,TRPA1 (h),13.3%
same,"averaged, maximal-normalized amplitude of voltage-gated sodium currents after application",[4],0.66 ± 0.04
same,"averaged, maximal-normalized amplitude of voltage-gated sodium currents after wash-out",[4],0.76 ± 0.05
"CC(=O)N[C@@H](C(=O)N1CCN(c2cccc(OC(F)(F)F)c2)CC1)c1ccccc1 [(R)-32, (R)-N-(2-Oxo-1-phenyl-2-(4-(3-(trifluoromethoxy)phenyl)piperazin-1-yl)ethyl)acetamide]","nociceptive response, acute phase of the formalin test",[1]; 100 mg/kg i.p.,decreased the nociceptive response
same,"nociceptive reaction, second phase of the formalin test","[1]; 25, 50 and 100 mg/kg i.p.",inhibited nociceptive reaction at all tested doses
same,ED50,"[1]; Mus musculus, ip, mice, i.p., phase II, read-out: ED50 in the late phase of the formalin test",35.7 mg/kg
same,ED50,[2],20.2 mg/kg
same,"pain threshold in STZ-induced neuropathy, % of the baseline",[3]; 25 mg/kg i.p.,113%
same,"pain threshold in STZ-induced neuropathy, % of the baseline",[3]; 50 mg/kg i.p.,120%
same,"pain threshold in STZ-induced neuropathy, % of the baseline",[3]; 100 mg/kg i.p.,134%
same,inhibition at 10 µM,TRPM8 (h),12.6%
same,inhibition at 10 µM,TRPA1 (h),9.6%
same,"averaged, maximal-normalized amplitude of voltage-gated sodium currents after application",[4],0.61 ± 0.07
same,"averaged, maximal-normalized amplitude of voltage-gated sodium currents after wash-out",[4],0.72 ± 0.08
same,inhibition at 1 µM,[5]; [6],-5.74%
same,inhibition at 1 µM,[5]; [7],-4.13%
same,inhibition at 1 µM,[5]; [8],-7.35%
same,inhibition at 10 µM,[5]; [6],6.15%
same,inhibition at 10 µM,[5]; [7],-0.03%
same,inhibition at 10 µM,[5]; [8],12.3%
same,inhibition at 100 µM,[5]; [6],22.9%
same,inhibition at 100 µM,[5]; [7],19.2%
same,inhibition at 100 µM,[5]; [8],26.5%
same,inhibition at 1 µM,[5]; [9],-3.08%
same,inhibition at 1 µM,[5]; [10],-3.09%
same,inhibition at 1 µM,[5]; [11],-3.07%
same,inhibition at 10 µM,[5]; [9],37.8%
same,inhibition at 10 µM,[5]; [10],35.3%
same,inhibition at 10 µM,[5]; [11],40.4%
same,inhibition at 100 µM,[5]; [9],98.4%
same,inhibition at 100 µM,[5]; [10],98.7%
same,inhibition at 100 µM,[5]; [11],98%
"CCCCNc1ccc(C(=O)OCCN(C)C)cc1 [Tetracaine, reference compound]",inhibition at 3 µM,[5]; [6],8.82%
same,inhibition at 3 µM,[5]; [7],11.3%
same,inhibition at 3 µM,[5]; [8],6.36%
same,inhibition at 30 µM,[5]; [6],27.6%
same,inhibition at 30 µM,[5]; [7],27.5%
same,inhibition at 30 µM,[5]; [8],27.8%
same,inhibition at 300 µM,[5]; [6],95.1%
same,inhibition at 300 µM,[5]; [7],94.6%
same,inhibition at 300 µM,[5]; [8],95.6%
same,inhibition at 3 µM,[5]; [9],47.5%
same,inhibition at 3 µM,[5]; [10],45.9%
same,inhibition at 3 µM,[5]; [11],49.1%
same,inhibition at 30 µM,[5]; [9],98.6%
same,inhibition at 30 µM,[5]; [10],98%
same,inhibition at 30 µM,[5]; [11],99.2%
same,inhibition at 300 µM,[5]; [9],101%
same,inhibition at 300 µM,[5]; [10],101%
same,inhibition at 300 µM,[5]; [11],102%
